This passage reports IC50 and inhibition results from ChEMBL document CHEMBL5352412, “Discovery of 1,2-diphenylethene derivatives as human DNA topoisomerase II catalytic inhibitors and antitumor agents” (Eur J Med Chem, 2022).

Structures are written as SMILES.

Experiment [1] deals with MDA-MB-231. As to the kind of experiment: Antiproliferative activity against human MDA-MB-231 cells incubated for 72 hrs by CCK8 assay. The experiment is classed as functional, cell-based. The conditions noted are these: Homo sapiens, MDA-MB-231, 72 h. On the technique in general: Formazan colour is commonly taken as a measure of viable cells.
Experiment [2] addresses T1, DNA topoisomerase 2-alpha (Homo sapiens, UniProt P11388). As to the kind of experiment: Inhibition of human topoisomerase 2-alpha assessed as reduction in relaxation of pBR322 DNA at 100 uM measured after 30 mins by agarose gel electrophoresis method relative to control.
The target in experiment [3] is T1, DNA topoisomerase 2-alpha. As to the kind of experiment: Inhibition of human topoisomerase 2-alpha assessed as reduction in relaxation of pBR322 DNA at 25 uM measured after 30 mins by agarose gel electrophoresis method relative to control.

T1 sequence (P11388 whole entry): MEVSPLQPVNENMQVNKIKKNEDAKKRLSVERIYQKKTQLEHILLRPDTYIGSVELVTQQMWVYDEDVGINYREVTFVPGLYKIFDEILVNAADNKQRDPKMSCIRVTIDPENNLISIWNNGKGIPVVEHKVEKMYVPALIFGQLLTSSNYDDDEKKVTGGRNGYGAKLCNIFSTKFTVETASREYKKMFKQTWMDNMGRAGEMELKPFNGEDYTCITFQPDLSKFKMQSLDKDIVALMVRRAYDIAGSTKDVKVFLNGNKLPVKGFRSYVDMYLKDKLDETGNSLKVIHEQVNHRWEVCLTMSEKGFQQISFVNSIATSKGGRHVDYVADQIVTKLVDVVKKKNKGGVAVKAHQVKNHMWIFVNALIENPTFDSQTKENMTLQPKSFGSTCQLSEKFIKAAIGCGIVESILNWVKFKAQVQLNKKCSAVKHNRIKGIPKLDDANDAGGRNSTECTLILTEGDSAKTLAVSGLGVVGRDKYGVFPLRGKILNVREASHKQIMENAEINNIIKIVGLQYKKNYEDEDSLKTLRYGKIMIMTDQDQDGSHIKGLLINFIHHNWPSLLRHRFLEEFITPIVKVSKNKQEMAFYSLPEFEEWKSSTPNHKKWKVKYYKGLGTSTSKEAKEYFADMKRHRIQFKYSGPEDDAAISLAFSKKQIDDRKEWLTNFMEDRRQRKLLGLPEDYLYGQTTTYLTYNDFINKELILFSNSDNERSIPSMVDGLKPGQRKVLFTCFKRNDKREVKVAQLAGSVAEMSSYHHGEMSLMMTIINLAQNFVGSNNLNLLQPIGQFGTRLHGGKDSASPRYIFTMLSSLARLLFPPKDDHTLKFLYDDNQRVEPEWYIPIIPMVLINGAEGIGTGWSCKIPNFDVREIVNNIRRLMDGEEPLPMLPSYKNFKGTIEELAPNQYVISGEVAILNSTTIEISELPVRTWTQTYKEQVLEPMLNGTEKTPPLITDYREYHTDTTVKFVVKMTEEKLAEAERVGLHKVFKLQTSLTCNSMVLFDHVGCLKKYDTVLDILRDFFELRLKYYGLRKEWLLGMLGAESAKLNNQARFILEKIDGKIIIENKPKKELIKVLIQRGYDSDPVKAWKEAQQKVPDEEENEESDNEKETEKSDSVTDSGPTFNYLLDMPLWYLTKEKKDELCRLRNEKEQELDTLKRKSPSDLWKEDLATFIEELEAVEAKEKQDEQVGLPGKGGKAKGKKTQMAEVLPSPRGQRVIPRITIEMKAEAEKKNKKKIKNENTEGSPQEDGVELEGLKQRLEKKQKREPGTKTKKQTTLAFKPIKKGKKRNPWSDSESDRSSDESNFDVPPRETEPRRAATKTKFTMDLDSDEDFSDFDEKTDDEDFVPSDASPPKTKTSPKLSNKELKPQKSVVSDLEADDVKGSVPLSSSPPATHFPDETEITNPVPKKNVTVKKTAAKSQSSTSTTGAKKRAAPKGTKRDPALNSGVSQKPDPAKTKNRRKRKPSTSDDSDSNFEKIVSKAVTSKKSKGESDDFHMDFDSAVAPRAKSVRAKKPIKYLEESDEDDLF

`COc1cc(CCc2ccc(NC(=O)/C=C/c3ccccc3)cc2)cc(OC)c1` displayed an IC50 in experiment [1] of 21.8 µM. The inhibition in experiment [2] came to 0.04%.
For the molecule `COc1ccc2nc(-c3ccc(NC(=O)/C=C/c4ccccc4)cc3)sc2c1`, the inhibition in experiment [3] is 0%; in experiment [2], 36.7%.
For `Oc1ccc(-c2cc(/C=C/c3cc(O)cc(O)c3)ccc2O)cc1`, the IC50 in experiment [1] was found to be 39.2 µM. In addition, the inhibition in experiment [3] came to 17.6%; in experiment [2], 64%.
Consider `O=[N+]([O-])c1cccc(-c2cc(/C=C/c3cc(O)cc(O)c3)ccc2O)c1`, for which the IC50 in experiment [1] was 33.2 µM. The inhibition came out at 97.1% in experiment [3] and 93.6% in experiment [2].
`CNC(=O)/C=C/c1ccc(/C=C/c2cc(O)cc(O)c2)cc1`: the inhibition in experiment [3] came out at 2.3%; in experiment [2], 29.7%.
With `O=C(/C=C/c1ccccc1)Nc1ccc(-c2cnc3cc(O)ccc3c2)cc1`, the inhibition is 55.4% in experiment [3] and 82.3% in experiment [2].
On to `COc1ccc2nc(-c3ccc(NC(=O)CCc4ccccc4)cc3)sc2c1`, for which, in experiment [2], the inhibition came to 0%.
As to `COc1cc(OC)cc(C(=O)Nc2ccc(NC(=O)/C=C/c3ccccc3)cc2)c1`, the inhibition in experiment [2] stood at 2.1%.
Consider `O=C(/C=C/c1ccc(O)c(/C=C/c2cc(O)cc(O)c2)c1)N1CCCCC1`, for which the IC50 in experiment [1] came out at 19.8 µM. The values for the inhibition in experiment [3] and in experiment [2] were 18.3% and 91.3%, respectively.
`O=C(/C=C/c1ccccc1)Nc1ccc(O)c(/C=C/c2cc(O)cc(O)c2)c1` displayed an IC50 in experiment [1] of 24.7 µM. Besides, the values for the inhibition in experiment [3] and in experiment [2] were 61.5% and 98.1%, respectively.
For the molecule `C/C=C/C(=O)Nc1ccc(O)c(/C=C/c2cc(O)cc(O)c2)c1`, the inhibition was 0.6% in experiment [3] and 52.7% in experiment [2].
In experiment [1], `Oc1cc(O)cc(/C=C/c2ccc(O)c(-c3ccccc3)c2)c1` came in with an IC50 of 42.4 µM. For the same molecule, the inhibition in experiment [3] came out at 10.5%; in experiment [2] it was 87.2%.
`Oc1cc(O)cc(/C=C/c2ccc(O)c(-c3cccc(O)c3)c2)c1` registered an IC50 in experiment [1] of 42.3 µM. Further, the inhibition in experiment [3] stood at 34.5%; in experiment [2], 72.1%.
`CCCNC(=O)/C=C/c1cc(/C=C/c2cc(O)cc(O)c2)ccc1O`: the figures for the inhibition in experiment [3] and in experiment [2] were 1.7% and 59.6%, respectively.
The like results for `NC(=O)/C=C/c1ccc(O)c(/C=C/c2cc(O)cc(O)c2)c1` were, in that order, 18.4% and 76.6%.
On to `COc1ccc2nc(-c3ccc(N)cc3)sc2c1`, for which the IC50 in experiment [1] stood at 37.2 µM.
`Oc1ccc2cc(-c3ccc(Cl)cc3Cl)cnc2c1` had an IC50 in experiment [1] of 16.7 µM.
As for `CNC(=O)/C=C/c1ccc(O)c(/C=C/c2cc(O)cc(O)c2)c1`, the results for the inhibition in experiment [3] and in experiment [2] were 1.2% and 63.5%, respectively.
Turning to `CN(C)C(=O)/C=C/c1ccc(/C=C/c2cc(O)cc(O)c2)cc1`, in experiment [1], the IC50 is 19.9 µM. The inhibition amounted to 0.1% in experiment [3] and 47.8% in experiment [2].
Consider `COc1cc(/C=C/c2ccc(NC(=O)/C=C/c3ccccc3)cc2)cc(OC)c1`, for which the inhibition worked out at 0.1% in experiment [3] and 15.3% in experiment [2].
`COc1ccc2cc(-c3ccc(NC(=O)CCc4ccccc4)cc3)cnc2c1`: in experiment [1], 21.1 µM corresponded to half-maximal inhibition (IC50). Moreover, the inhibition in experiment [3] was found to be 0%; in experiment [2] it was 19.7%.
Regarding `COc1ccc2cc(-c3ccc(NC(=O)CCc4ccccc4)cc3)ccc2c1`, the inhibition in experiment [2] was determined as 0%.
In the case of `CNC(=O)/C=C/c1cc(/C=C/c2cc(O)cc(O)c2)ccc1O`, the results for the inhibition in experiment [3] and in experiment [2] were 2.4% and 45%, respectively.
`NC(=O)/C=C/c1ccc(/C=C/c2cc(O)cc(O)c2)cc1`: the values for the inhibition in experiment [3] and in experiment [2] were 3.9% and 29.8%, respectively.
For `COc1cc(OC)cc(C(=O)Nc2ccc(NC(=O)CCc3ccccc3)cc2)c1`, in experiment [2], the inhibition is 3.7%.
As for `O=C(CCc1ccccc1)Nc1ccc(NC(=O)c2cc(O)cc(O)c2)cc1`, the inhibition was 4.1% in experiment [3] and 54.5% in experiment [2].
Consider `COc1ccc2cc(-c3ccc(NC(=O)/C=C/c4ccccc4)cc3)ccc2c1`, for which the inhibition in experiment [2] came to 0.1%.
On to `O=C(CCc1ccccc1)Nc1ccc(-c2cnc3cc(O)ccc3c2)cc1`, for which the inhibition in experiment [2] turned out to be 9.7%.

By IC50 is commonly meant the point on the concentration scale where inhibition reaches its midpoint. Low readings indicate higher potency, high ones lower potency. The term inhibition denotes the change of the read-out against control, counted positive when it falls.
